Source: patent publication US10570131B2, “Heterocyclic compounds and their use in preventing or treating bacterial infections” (MUTABILIS, priority 2015, dated 2020)

Assays:
Type in all cases: cell-based
[1] = tested on: K. pneumoniae BAA-1898; assay: microbe, parasite or virus in culture; conditions: strain BAA-1898 (TEM-1, SHV-11, SHV-12, KPC-2)
Method: (§1) Compounds of the present invention were assessed against genotyped bacterial strains alone or in combination with the β-lactam ceftazidime (CAZ). […] Briefly, compounds alone according to the invention were prepared in DMSO and spotted (2 μL each) on sterile polystyrene plates (Corning, 3788). […] Log phase bacterial suspensions were adjusted to a final density of 5×10^5 cfu/mL in cation-adjusted Mueller-Hinton broth (Becton-Dickinson) and added to each well (98 μL). Microplates were incubated for 16-20 h at 35° C. in ambient air. The MIC of the compounds was defined as the lowest concentration of said compounds that prevented bacterial growth as read by visual inspection.

[2] = tested on: K. pneumoniae 6299; assay: microbe, parasite or virus in culture; conditions: strain 6299 (TEM-1, SHV-11, OXA-163)
Method: as §1

[3] = tested on: P. aeruginosa CIP105250; assay: microbe, parasite or virus in culture; conditions: strain CIP105250 (OXA-15)
Method: as §1

[4] = tested on: E. coli 131119; assay: microbe, parasite or virus in culture; conditions: strain 131119 (TEM-1, OXA-48)
Method: as §1

[5] = tested on: E. cloacae P99; assay: MIC of ceftazidime alone and in combination with compounds (synergy), broth microdilution; conditions: MIC of ceftazidime with compound fixed at 4 μg/mL; strain P99 (AmpC)
[6] = tested on: E. coli UFR18; assay: MIC of compounds alone, broth microdilution; conditions: strain UFR18 (CTX-M-15, OXA-204)
Method: as §1

[7] = tested on: K. pneumoniae UFR24; assay: MIC of compounds alone, broth microdilution; conditions: strain UFR24 (TEM-1, SHV-2, SHV-11, OXA-1, OXA-48, OXA-47)
Method: as §1

[8] = tested on: K. pneumoniae 160143; assay: MIC of compounds alone, broth microdilution; conditions: strain 160143 (TEM-1, SHV-1, CTX-M-15, KPC-2, OXA-1)
Method: as §1

[9] = tested on: E. cloacae 260508; assay: MIC of compounds alone, broth microdilution; conditions: strain 260508 (TEM-1, CTX-M-15)
Method: as §1

[10] = tested on: K. pneumoniae UFR68; assay: MIC of compounds alone, broth microdilution; conditions: strain UFR68 (TEM-1, SHV-11, CTX-M-15, KPC-3)
Method: as §1

[11] = tested on: K. oxytoca UFR21; assay: MIC of compounds alone, broth microdilution; conditions: strain UFR21 (TEM-1, CTX-M-15, OXA-48)
Method: as §1

[12] = tested on: E. coli 190317; assay: MIC of compounds alone, broth microdilution; conditions: strain 190317 (TEM-1, SHV-12, CTX-M-15, OXA-1)
Method: as §1

[13] = tested on: E. coli UFR52; assay: MIC of compounds alone, broth microdilution; conditions: strain UFR52 (TEM-1, SHV-12, IMP-8)
Method: as §1

[14] = tested on: E. coli UFR74; assay: MIC of compounds alone, broth microdilution; conditions: strain UFR74 (SHV-1, DHA-1)
Method: as §1

[15] = tested on: E. cloacae UFR85; assay: MIC of compounds alone, broth microdilution; conditions: strain UFR85 (TEM-1, CTX-M-15, derepressed AmpC)
Method: as §1

[16] = tested on: K. pneumoniae 200047; assay: MIC of compounds alone, broth microdilution; conditions: strain 200047 (TEM-1, SHV-32, CTX-M-15, OXA-1)
Method: as §1

[17] = tested on: P. aeruginosa CIP107051; assay: MIC of compounds alone, broth microdilution; conditions: strain CIP107051 (TEM-24)
Method: as §1

[18] = tested on: E. coli UFR32; assay: MIC of compounds alone, broth microdilution; conditions: strain UFR32 (TEM-1, VEB-1, OXA-10)
Method: as §1

[19] = tested on: E. cloacae UFR38; assay: MIC of compounds alone, broth microdilution; conditions: strain UFR38 (CTX-M-15, NDM-1)
Method: as §1

[20] = tested on: C. murliniae 210102; assay: MIC of compounds alone, broth microdilution; conditions: strain 210102 (VIM-4)
Method: as §1

[21] = tested on: E. cloacae P99; assay: MIC of compounds alone, broth microdilution; conditions: strain P99 (AmpC)
Method: as §1

[22] = tested on: E. cloacae UFR70; assay: MIC of compounds alone, broth microdilution; conditions: strain UFR70 (TEM-1, CTX-M-15, CMY-2, OXA-1, Porin loss)
Method: as §1

[23] = tested on: K. pneumoniae UFR77; assay: MIC of compounds alone, broth microdilution; conditions: strain UFR77 (CMY-2)
Method: as §1

[24] = tested on: E. coli RGN238; assay: MIC of compounds alone, broth microdilution; conditions: strain RGN238 (OXA-1)
Method: as §1

[25] = tested on: E. coli UFR61O; assay: MIC of compounds alone, broth microdilution; conditions: strain UFR61O (TEM-1, KPC-2)
Method: as §1

[26] = tested on: E. coli 190317; assay: MIC of ceftazidime alone and in combination with compounds (synergy), broth microdilution; conditions: MIC of ceftazidime with compound fixed at 4 μg/mL; strain 190317 (TEM-1, SHV-12, CTX-M-15, OXA-1)
[27] = tested on: K. pneumoniae BAA-1898; assay: as above; conditions: MIC of ceftazidime with compound fixed at 4 μg/mL; strain BAA-1898 (TEM-1, SHV-11, SHV-12, KPC-2)
Method: as §1

[28] = tested on: K. pneumoniae 6299; assay: as above
Method: as §1

[29] = tested on: P. aeruginosa CIP107051; assay: as above; conditions: MIC of ceftazidime with compound fixed at 4 μg/mL; strain CIP107051 (TEM-24)
Method: as §1

[30] = tested on: P. aeruginosa CIP105250; assay: as above; conditions: MIC of ceftazidime with compound fixed at 4 μg/mL; strain CIP105250 (OXA-15)
Method: as §1

[31] = tested on: P. aeruginosa UFR48; assay: as above; conditions: Pseudomonas aeruginosa, UFR48, read-out: MIC of CAZ
Method: as §1

Q: How did the “MIC compounds of the invention alone” value [1] turn out when NCCON=C1C[C@@H](C(N)=O)N2C[C@@H]1N(OS(=O)(=O)[O-])C2=O.O=C(O)C(F)(F)F.[Na+] [Example 4, sodium and 2,2,2-trifluoroacetate [(2S, 5S)-4-(2-ammoniumethoxyimino)-2-carbamoyl-7-oxo-1,6-diazabicyclo[3.2.1]octan-6-yl] sulfate] was run?
A: >32 µg/mL

Q: And the “MIC compounds of the invention alone” value [2]?
A: >32 µg/mL

Q: What about the “MIC compounds of the invention alone” value [3] of the same compound?
A: >32 µg/mL

Q: And the “MIC compounds of the invention alone” value [4]?
A: >32 µg/mL

Q: And the “MIC, combination of CAZ and compounds of the invention at 4 μg/mL” value (“MIC, combination” below) [5]?
A: 0.25 µg/mL

Q: What about the “MIC compounds of the invention alone” value [6] of the same compound?
A: 4 µg/mL

Q: And the “MIC compounds of the invention alone” value [7]?
A: >32 µg/mL

Q: And the “MIC compounds of the invention alone” value [8]?
A: >32 µg/mL

Q: What about the “MIC compounds of the invention alone” value [9] of the same compound?
A: 16 µg/mL

Q: And the “MIC compounds of the invention alone” value [10]?
A: >32 µg/mL

Q: And the “MIC compounds of the invention alone” value [11]?
A: >32 µg/mL

Q: And the “MIC compounds of the invention alone” value [12]?
A: 4 µg/mL

Q: What about the “MIC compounds of the invention alone” value [13] of the same compound?
A: 8 µg/mL

Q: What about the “MIC compounds of the invention alone” value [14] of the same compound?
A: >32 µg/mL

Q: And the “MIC compounds of the invention alone” value [15]?
A: >32 µg/mL

Q: What about the “MIC compounds of the invention alone” value [16] of the same compound?
A: >32 µg/mL

Q: What about the “MIC compounds of the invention alone” value [17] of the same compound?
A: 32 µg/mL

Q: What about the “MIC compounds of the invention alone” value [18] of the same compound?
A: 4 µg/mL

Q: What about the “MIC compounds of the invention alone” value [19] of the same compound?
A: 2 µg/mL

Q: And the “MIC compounds of the invention alone” value [20]?
A: >32 µg/mL

Q: What about the “MIC compounds of the invention alone” value [21] of the same compound?
A: 16 µg/mL

Q: And the “MIC compounds of the invention alone” value [22]?
A: >32 µg/mL

Q: And the “MIC compounds of the invention alone” value [23]?
A: >32 µg/mL

Q: What about the “MIC compounds of the invention alone” value [24] of the same compound?
A: >32 µg/mL

Q: And the “MIC compounds of the invention alone” value [25]?
A: >32 µg/mL

Q: What about the “MIC, combination” value [26] of the same compound?
A: <0.25 µg/mL

Q: What about the “MIC, combination” value [27] of the same compound?
A: ≤0.125 µg/mL

Q: And the “MIC, combination” value ([28]; MIC of ceftazidime with compound fixed at 4 μg/mL, strain 6299 (TEM-1, SHV-11, OXA-163))?
A: 0.25 µg/mL

Q: And the “MIC, combination” value [29]?
A: 8 µg/mL

Q: What about the “MIC, combination” value [30] of the same compound?
A: 8 µg/mL

Q: Which MIC [31] does the source give for CC(C)(O/N=C(\C(=O)N[C@@H]1C(=O)N2C(C(=O)[O-])=C(C[n+]3ccccc3)CS[C@H]12)c1csc(N)n1)C(=O)O [CAZ, ceftazidime, reference compound] here?
A: 256 µg/mL

Q: What about the MIC ([28]; Klebsiella pneumoniae, 6299, read-out: MIC of CAZ) of the same compound?
A: 256 µg/mL
